Patent US8486916B2, “Medicine, food and drink or feed containing sphingomyelin” (Megmilk Snow Brand Co., Ltd., priority 2005, dated 2013)
Where two headings read alike, the source gives them in different places.

Legend:
β-Lg = assay: Test on effect of blocking allergen invasion (β-Lg and anti-β-Lg IgE in blood); format: in vivo, Infant Wistar rats; details: for Anti-β-Lg IgE: blood 2 weeks after β-Lg; for β-Lg: blood 1 hour after β-Lg
Protocol: Infant Wistar rats (14 day old, body weight: around 20 g, 8 individuals, Charles River Laboratories, Japan) were divided into a control group and sphingomyelin administration groups (SPM administration groups), and all the groups were raised using artificial milk having composition closely analogous to that of rat milk. […] On the 21st day, 100 μl of a β-Lg solution (10 mg/ml) was orally administered thereto. Blood collected from the rats after 1 hour and after 2 weeks. On the other hand, a β-Lg solution and a complete Freund adjuvant were mixed for emulsification, and the emulsion was hypodermically injected to 3 locations (both sides of the back, and the hip) of a 3-month-old rabbit (Japanese white, male, manufactured by KITAYAMA LABES Co., Ltd.) to obtain anti-β-Lg serum. A β-Lg amount in the above-described blood after 1 hour was measured by a sandwich ELISA method using this antiserum as a primary antibody and a horseradish peroxidase (PO)-labeled secondary antibody. Moreover, anti-β-Lg IgE in the above-described blood after 2 weeks was measured by an ELISA method using β-Lg and a PO-labeled anti-rat IgE antibody (manufactured by Nordic).

cholera toxin = details: in vivo
[1] = tested on: carrageenin-induced edema; assay: Carrageenin-induced footpad edema method; format: in vivo, Wistar rats; details: 100 mg/kg oral; 5 hours after λ-carrageenin injection
Protocol: The anti-inflammatory effect of sphingomyelin was tested by a carrageenin-induced footpad edema method. Specifically, a test subject shown in Table 15 was suspended in an aqueous solution containing 0.5% carboxymethylcellulose and orally administered (100 mg/kg) to male Wistar rats (body weight: 110 to 130 g, 8 individuals per group) according to the method of Winter et al. (Proceedings of the Society for Experimental Biology & Medicine, vol. 111, pp. 554, 1962). […] An aqueous solution containing 0.5% carboxymethylcellulose and no test substance was administered to rats in a control group. A rate of increase in footpad volume (V0) attributed to the injection of λ-carrageenin was measured in the control group in the same way as above. An carrageenin-induced edema inhibition rate (%) was calculated according to the calculation formula: (V0−V1)×100/V0 and used as the anti-inflammatory activity of the test substance. A higher value of this inhibition rate indicates higher anti-inflammatory activity.

[2] = tested on: phototoxic pigmentation caused by treatment with 8MOP; format: in vivo, female ICR mice; details: for depigmentation / pigmentation grade (Table 12: +3 whitened to −3 evidently blackened): 5% sample, 50 μl once daily
Text: An anti-pigmentation effect and the degree of pigmentation (shown in Table 12) produced as a side effect were rated by four-grade evaluation (+: depigmentation effect, −: side effect). […] Moreover, no agent was applied to a control group. […] [table]

SD rats = assay: Water maze experiment (learning ability); format: in vivo; details: 2.0% in feed for 10 days
Protocol: The sphingomyelin raw material obtained in Example 1 was used to conduct a water maze experiment for the purpose of examining the influence of orally taken sphingomyelin on learned behavior. […] First, 8-week-old male SD rats (Charles River Laboratories, Japan) were preliminarily raised for 7 days using a standard diet (AIN-93G) and then divided into 3 groups each containing 6 individuals. In this context, the rats were raised under conditions involving room temperature of 24° C., humidity of 60%, and light-dark (12 hour/12 hour) control and were allowed to freely take deionized water. [table] Subsequently, a “water filled multiple T-maze” was prepared by arranging combined T-mazes with 11 choice points in a water tank of 120 cm long, 120 cm wide, and 40 cm deep. A water maze experiment was conducted at a water temperature of 23 to 24° C. according to the method of Ishizaki (Ishizaki, Exp. Anim., vol. 27, pp. 9-12, 1978). First, the rats were separately acclimatized by 5 trials in a straight waterway a day before the test. Next, each rat was given 3 trials in the water maze for 4 consecutive days of the test. The length of time taken to swim from the start to the goal of the water maze was measured.

enteropathogenic E. coli = details: SD rats
[3] = tested on: pigmentation in the back skin of the guinea pigs; assay: Anti-pigmentation effect by oral administration (ultraviolet-irradiated skin); format: in vivo, A-1 guinea pigs
Protocol: Sphingomyelin was tested for its anti-pigmentation effect by oral administration. The back of female A-1 guinea pigs (body weight: approximately 400 g) was shaved and irradiated with ultraviolet rays (UVA (max. 360 nm): 30.3 kJ/m^2, UVB (max. 312 nm): 4.8 kJ/m^2) once daily for 4 days. […] The oral administration to each group was performed once daily using a sonde, and the guinea pigs were raised for 4 weeks. The sphingomyelin raw material of Example 1 was suspended in 10 g of a saline, and this suspension was orally administered to each of the groups B to D. Influence on pigmentation in the back skin of the guinea pigs in each group was measured with a colorimeter (CHROMA METER CR-200) manufactured by MINOLTA at the start of sample administration and at the completion of sample administration. A lightness recovery rate from the start of sample administration was calculated.

For sphingomyelin, which “Anti-β-Lg IgE” value (β-Lg; 0.05 mg/kg/day oral) is on record?
The value was 498.2 ± 156.8 ng/mL.

And the β-Lg (β-Lg; 0.05 mg/kg/day oral)?
The β-Lg was 38.6 ± 14.7 ng/mL.

And the “Anti-β-Lg IgE” value (β-Lg; 0.1 mg/kg/day oral)?
The value was 190.6 ± 77.8 ng/mL.

What about the β-Lg (β-Lg; 0.1 mg/kg/day oral) of the same substance?
Its β-Lg is 13.4 ± 6.6 ng/mL.

And the “Anti-β-Lg IgE” value (β-Lg; 5.0 mg/kg/day oral)?
Its value is 165.4 ± 65.9 ng/mL.

And the β-Lg (β-Lg; 5.0 mg/kg/day oral)?
Its β-Lg is 5.6 ± 3.8 ng/mL.

What about the Inhibition rate (cholera toxin) of the same substance?
Its Inhibition rate is 38.9 ± 3.8%.

And the Inhibition rate [1]?
The Inhibition rate was 40.2%.

And the “depigmentation / pigmentation grade (Table 12: +3 whitened to −3 evidently blackened)” value (“depigmentation / pigmentation grade” for short) ([2]; application period 1 week)?
The value was 0.4.

What about the “depigmentation / pigmentation grade” value ([2]; application period 2 weeks) of the same substance?
Its value is 0.8.

What about the “depigmentation / pigmentation grade” value ([2]; application period 3 weeks) of the same substance?
The value was 1.2.

And the “depigmentation / pigmentation grade” value ([2]; application period 4 weeks)?
Its value is 1.1.

What about the “depigmentation / pigmentation grade” value ([2]; application period 5 weeks) of the same substance?
Its value is 0.9.

And the “depigmentation / pigmentation grade” value ([2]; application period 6 weeks)?
Its value is 0.3.

What about the “depigmentation / pigmentation grade” value ([2]; application period 7 weeks) of the same substance?
Its value is 0.

And the “depigmentation / pigmentation grade” value ([2]; application period 8 weeks)?
Its value is 0.

What about the “side effect (pigmentation) on application” value ([2]; mouse, in vivo) of the same substance?
The value was “no side effect”.

And the “Length of time taken to swim to goal” value (SD rats; 1st day)?
The value was 33 ± 10 s.

What about the “Length of time taken to swim to goal” value (SD rats; 2nd day) of the same substance?
Its value is 25 ± 6 s.

And the “Length of time taken to swim to goal” value (SD rats; 3rd day)?
Its value is 18 ± 5 s.

What about the “Length of time taken to swim to goal” value (SD rats; 4th day) of the same substance?
Its value is 17 ± 6 s.

And the Incidence of diarrhea (enteropathogenic E. coli; intake 0.1 mg/day in feed, control 100)?
The Incidence of diarrhea was 100%.

And the Incidence of diarrhea (enteropathogenic E. coli; intake 1.0 mg/day in feed)?
The Incidence of diarrhea was 40%.

And the Incidence of diarrhea (enteropathogenic E. coli; intake 5.0 mg/day in feed)?
Its Incidence of diarrhea is 30%.

What about the Incidence of diarrhea (enteropathogenic E. coli; intake 10.0 mg/day in feed) of the same substance?
The Incidence of diarrhea was 10%.

And the Lightness recovery rate ([3]; 2 mg/kg oral once daily for 4 weeks (group B), group A 31)?
The Lightness recovery rate was 48%.

And the Lightness recovery rate ([3]; 5 mg/kg oral once daily for 4 weeks (group C))?
The Lightness recovery rate was 62%.

What about the Lightness recovery rate ([3]; 10 mg/kg oral once daily for 4 weeks (group D)) of the same substance?
The Lightness recovery rate was 78%.

And the “lightness recovery rate relative to that in the group A” value ([3]; groups B to D versus saline group A, 4-week oral administration)?
Its value is “up to 2.5 times”.
